Activity calls are given as the source filed them. The calls are words filed in the database; no cut-off is given here.
Key:
CHO [1] = assay: Cytotoxicity against CHO cells upto 100 nM after 4 days by Cell-Titer assay; format: cell-based, Cricetulus griseus; conditions: chinese hamster, 96 h
CHO [2] = assay: Cytotoxicity against CHO pgsA745 mutant cells upto 100 nM after 4 days by Cell-Titer assay; format: cell-based, Cricetulus griseus; conditions: chinese hamster, 96 h
[3] = target: Fibroblast growth factor 2 (Homo sapiens, UniProt P09038); assay: Binding affinity to biotinylated FGF2 in CHO cells by flow cytometry; format: cell-based
Chain of Fibroblast growth factor 2 (P09038 143-288 limits assumed): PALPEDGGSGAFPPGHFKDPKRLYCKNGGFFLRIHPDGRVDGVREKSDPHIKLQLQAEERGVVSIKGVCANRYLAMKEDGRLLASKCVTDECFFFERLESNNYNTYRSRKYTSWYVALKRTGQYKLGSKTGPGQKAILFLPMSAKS

CHO [4] = assay: Inhibition of arg9 binding to CHO cells after 1 hr by flow cytometry; format: cell-based
CHO [5] = assay: Inhibition of arg9 binding to CHO pgsA745 mutant cells after 1 hr by flow cytometry; format: cell-based

Question: N=C(N)NC[C@@H]1O[C@H](O[C@H]2[C@@H](O)[C@H](O[C@@H]3[C@@H](O)[C@H](NC(=N)N)C[C@H](NC(=N)N)[C@H]3O[C@H]3O[C@H](CNC(=N)N)[C@@H](O)[C@H](O)[C@H]3NC(=N)N)O[C@@H]2CSCCNC(=O)CCCCCNC(=O)CCCC[C@@H]2SCC3NC(=O)NC32)[C@H](NC(=N)N)[C@@H](O)[C@@H]1O (stereo not given in full) was tested. Which Activity (CHO [1]) did it give?
Answer: Its Activity is “Non-toxic”.

Question: And the Activity (CHO [2])?
Answer: Its Activity is “Non-toxic”.

Question: Which results are given for N=C(N)NC[C@@H]1O[C@H](O[C@H]2[C@@H](O)[C@H](O[C@@H]3[C@@H](O)[C@H](NC(=N)N)C[C@H](NC(=N)N)[C@H]3O[C@H]3O[C@H](CNC(=N)N)[C@@H](O)[C@H](O)[C@H]3NC(=N)N)O[C@@H]2CO)[C@H](NC(=N)N)[C@@H](O)[C@@H]1O [GUANIDINONEOMYCIN]?
Answer: IC50 [3]: 20 µM; Activity (CHO [4]): Active; Activity (CHO [5]): inactive
